Measured values: patent publication US6545002B1 (University of Virginia Patent Foundation, priority 1999, dated 2003)
Read-outs that look alike come from different tables or passages of the source.

Columns and labels:
rat A1 receptors (rA1) = molecular target: T1, rat A1 receptors (rA1) (Rattus norvegicus, UniProt P25099); test: Displacement of [3H]R-PIA binding in rat brain (cerebral cortical) membranes; conditions: for Ki: read-out: rA1 Ki or IC50
T1 construct: to A1 receptors from rat cerebral cortical membranes; from tissue; host or cells: rat cerebral cortical (brain) membranes
T1 sequence (P25099 1-326): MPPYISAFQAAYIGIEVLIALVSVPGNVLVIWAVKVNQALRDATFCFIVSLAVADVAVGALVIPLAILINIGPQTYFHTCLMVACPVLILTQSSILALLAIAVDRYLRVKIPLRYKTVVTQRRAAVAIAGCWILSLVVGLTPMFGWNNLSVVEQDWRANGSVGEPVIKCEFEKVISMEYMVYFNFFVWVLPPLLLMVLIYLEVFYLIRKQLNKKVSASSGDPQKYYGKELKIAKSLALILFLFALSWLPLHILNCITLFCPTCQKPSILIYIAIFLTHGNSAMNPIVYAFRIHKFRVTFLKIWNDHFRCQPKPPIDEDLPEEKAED
Experimental: (§1) Bruns, R. F. et al., Naunyn-Schmiedeberg's Arch. […] Binding of [^3H]R-N^6-phenylisopropyladenosine. Schwabe, U. et al., Naunyn-Schmiedeberg's Arch. […] (Dupont NEN, Boston, Mass.) to A2A receptors from rat striatal membranes was performed as described. […] All non-radioactive compounds were initially dissolved in DMSO, and diluted with buffer to the final concentration, where the amount of DMSO never exceeded 2%. Incubations were terminated by rapid filtration over Whatman GF/B filters, using a Brandell cell harvester (Brandell, Gaithersburg, Md.). The tubes were rinsed three times with 3 mL buffer each.
(§2) At least six different concentrations of competitor, spanning 3 orders of magnitude adjusted appropriately for the IC50 of each compound, were used. IC50 values, calculated with the nonlinear regression method implemented in (Graph-Pad Prism, San Diego, Calif.), were converted to apparent Ki values as described. Linden, J., J. Cycl. Nucl.

human A3 receptors (hA3) = molecular target: T2, human A3 receptors (hA3) (Homo sapiens, UniProt P0DMS8); test: Displacement of [125I]ABA binding at human A3 receptors expressed in HEK-293 cells; conditions: read-out: hA3 Ki or IC50
T2 construct: expressed in transfected cells; host or cells: HEK-293
T2 sequence (P0DMS8 1-318): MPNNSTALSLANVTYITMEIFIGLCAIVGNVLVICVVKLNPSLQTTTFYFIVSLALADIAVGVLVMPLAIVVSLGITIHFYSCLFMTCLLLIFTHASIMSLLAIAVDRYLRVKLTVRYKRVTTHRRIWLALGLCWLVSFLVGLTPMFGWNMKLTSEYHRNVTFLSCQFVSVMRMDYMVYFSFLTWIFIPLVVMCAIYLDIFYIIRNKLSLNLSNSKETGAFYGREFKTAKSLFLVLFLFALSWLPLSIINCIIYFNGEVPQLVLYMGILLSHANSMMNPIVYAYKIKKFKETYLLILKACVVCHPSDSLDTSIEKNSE

[1] = molecular target: T3, human A2B receptors (hA2B) (Homo sapiens, UniProt P29275); test: Radioligand binding ([125I]ABOPX / [3H]ZM241385) at human A2B receptors expressed in HEK-293 cells; conditions: for Ki: read-out: hA2B Ki or IC50
T3 construct: expressed in transfected cells; host or cells: HEK-293 (HEK-A2B, G418-selected)
T3 sequence (P29275 1-332): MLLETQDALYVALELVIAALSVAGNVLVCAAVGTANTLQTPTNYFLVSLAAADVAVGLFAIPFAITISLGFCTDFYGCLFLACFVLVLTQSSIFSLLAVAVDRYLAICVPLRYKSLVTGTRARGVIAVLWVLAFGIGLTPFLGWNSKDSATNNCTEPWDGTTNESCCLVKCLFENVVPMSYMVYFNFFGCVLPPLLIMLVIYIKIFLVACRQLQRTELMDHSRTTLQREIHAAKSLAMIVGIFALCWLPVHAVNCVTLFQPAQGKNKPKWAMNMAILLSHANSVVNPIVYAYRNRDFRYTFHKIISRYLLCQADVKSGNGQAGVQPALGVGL

rat A2A receptors (rA2A) = molecular target: T4, rat A2A receptors (rA2A) (Rattus norvegicus, UniProt P30543); test: Displacement of [3H]CGS 21680 binding in rat striatal membranes; conditions: for Ki: read-out: rA2A Ki or IC50
T4 construct: to A2A receptors from rat striatal membranes was performed as described; from tissue; host or cells: rat striatal membranes
T4 sequence (P30543 whole entry): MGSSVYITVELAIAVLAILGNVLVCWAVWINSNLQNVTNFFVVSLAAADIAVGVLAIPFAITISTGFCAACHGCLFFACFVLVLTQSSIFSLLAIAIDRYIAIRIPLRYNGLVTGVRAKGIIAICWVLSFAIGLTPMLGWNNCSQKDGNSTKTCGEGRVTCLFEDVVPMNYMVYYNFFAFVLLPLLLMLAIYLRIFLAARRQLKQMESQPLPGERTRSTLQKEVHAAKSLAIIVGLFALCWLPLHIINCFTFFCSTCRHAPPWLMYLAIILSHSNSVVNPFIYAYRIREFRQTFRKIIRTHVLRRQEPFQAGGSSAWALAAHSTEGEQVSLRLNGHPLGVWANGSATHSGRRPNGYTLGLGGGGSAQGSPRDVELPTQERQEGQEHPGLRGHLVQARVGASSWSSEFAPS
Experimental: as §1, §2

[2] = molecular target: recombinant human A2A receptors (hA2A) (Homo sapiens, UniProt P29274); test: Radioligand binding (125I-ZM241385) at recombinant human A2A receptors in HEK-293 cells
recombinant human A2A receptors (hA2A), sequence (P29274 whole entry): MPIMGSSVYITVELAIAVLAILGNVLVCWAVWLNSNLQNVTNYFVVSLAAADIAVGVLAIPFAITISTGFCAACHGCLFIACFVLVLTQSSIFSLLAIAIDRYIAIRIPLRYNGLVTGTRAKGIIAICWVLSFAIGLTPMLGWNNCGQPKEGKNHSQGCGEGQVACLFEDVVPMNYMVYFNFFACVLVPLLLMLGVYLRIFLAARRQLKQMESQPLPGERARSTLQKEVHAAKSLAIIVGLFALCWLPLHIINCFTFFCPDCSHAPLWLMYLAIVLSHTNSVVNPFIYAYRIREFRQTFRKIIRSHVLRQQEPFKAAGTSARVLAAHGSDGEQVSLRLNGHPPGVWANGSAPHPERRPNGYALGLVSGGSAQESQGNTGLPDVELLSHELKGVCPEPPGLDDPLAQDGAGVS
Experimental: The potency of the xanthine derivatives at human A2B receptors was evaluated using two binding assays. […] In order to determine selectivity, the xanthines were evaluated using standard binding assays at A1, A2A, and A3 receptors.

[3] = molecular target: T5, recombinant human A1 receptors (hA1) (Homo sapiens, UniProt P30542); test: Radioligand binding ([3H]CPX) at recombinant human A1 receptors in HEK-293 cells
T5 sequence (P30542 1-326): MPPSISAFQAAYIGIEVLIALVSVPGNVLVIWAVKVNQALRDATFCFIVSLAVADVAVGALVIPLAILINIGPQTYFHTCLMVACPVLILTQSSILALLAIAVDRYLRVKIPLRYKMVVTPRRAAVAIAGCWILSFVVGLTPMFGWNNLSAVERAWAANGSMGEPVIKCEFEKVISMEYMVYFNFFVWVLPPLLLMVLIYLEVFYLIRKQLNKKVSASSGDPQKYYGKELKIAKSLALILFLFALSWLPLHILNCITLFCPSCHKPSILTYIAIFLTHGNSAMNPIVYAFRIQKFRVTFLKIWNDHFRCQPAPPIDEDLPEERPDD

[4] = Table 1, [3H]R-PIA, rat brain membranes
[5] = Table 1, [3H]CGS 21680, rat striatal membranes
[6] = read-out: hA1 Ki, values marked (h), Table 1, recombinant human A1, HEK 293

Row | SMILES | melting point [°C] | Ki (rat A1 receptors (rA1); Table 2) [nM] | Ki (rat A2A receptors (rA2A); Table 2) [nM] | Ki ([1]; Table 2) [nM] | further results
1 | CCCn1c(=O)c2[nH]c(-c3ccc(OCC(=O)ON4C(=O)CCC4=O)cc3)nc2n(CCC)c1=O [Compound 4b] |  |  |  |  | Ki (rat A1 receptors (rA1); [4]): 153 nM; Ki (human A3 receptors (hA3); Table 1, [125I]ABA, HEK-293): 227 nM; Ki ([1]; Table 1, [125I]ABOPX, HEK-293): 9.75 ± 4.8 nM; Ki (rat A2A receptors (rA2A); [5]): 127 nM
2 | O=C(O)COc1ccc(-c2nc3c([nH]2)c(=O)n(Cc2ccccc2)c(=O)n3Cc2ccccc2)cc1 [Compound 7, 8-[4-[(Carboxymethyl)oxy]phenyl]-1,3-dibenzyl-xanthine] | > 310 |  |  |  | Ki (rat A1 receptors (rA1); [4]): 679 ± 190 nM; Ki ([1]; Table 1, [125I]ABOPX, HEK-293): 1760 nM; rA2A % displacement of specific binding (rat A2A receptors (rA2A); Table 1, at 100,000 nM): 25 ± 3%
3 | CCCn1c(=O)c2[nH]c(-c3ccc(C=CC(=O)O)cc3)nc2n(CCC)c1=O [Compound 8] |  |  |  |  | Ki (human A3 receptors (hA3); Table 1, [125I]ABA, HEK-293): 30 ± 14 nM; Ki ([1]; Table 1, [125I]ABOPX, HEK-293): 60 ± 2 nM; Ki ([2]; read-out: hA2A Ki, values marked (h), Table 1, recombinant human A2A, HEK 293): 190 ± 71 nM; Ki [3, 6]: 140 ± 3 nM; Ki (rat A2A receptors (rA2A); [5]): 800 nM
4 | O=C(O)C=Cc1ccc(-c2nc3c([nH]2)c(=O)n(CC2CCCCC2)c(=O)n3CC2CCCCC2)cc1 [Compound 9] |  |  |  |  | Ki (rat A1 receptors (rA1); [4]): 602 ± 24 nM; Ki (human A3 receptors (hA3); Table 1, [125I]ABA, HEK-293): 922 ± 399 nM; Ki ([1]; Table 1, [125I]ABOPX, HEK-293): 199 ± 52 nM; Ki [3, 6]: 4890 nM
5 | O=C(O)/C=C/c1ccc(-c2nc3c([nH]2)c(=O)n(Cc2ccccc2)c(=O)n3Cc2ccccc2)cc1 [Compound 10, 8-(4-(2-Carboxy-trans-vinyl)phenyl)-1,3-dibenzyl-xanthine] | > 310 |  |  |  | Ki (rat A1 receptors (rA1); [4]): 201 ± 23 nM; Ki ([1]; Table 1, [125I]ABOPX, HEK-293): 469 ± 23 nM; Ki (rat A2A receptors (rA2A); [5]): 4450 nM
6 | CCCn1c(=O)c2[nH]c(-c3ccc(OCC(N)=O)cc3)nc2n(CCC)c1=O [Compound 11] |  | 20 ± 3.8 | 76.3 ± 14 |  | more potent than the carboxylic acid 4a at A1 receptors (rat A1 receptors (rA1); relative to 4a): 3 fold; potency versus the carboxylic acid 4a at A2B receptors ([1]; relative to 4a): equipotent; more potent than the carboxylic acid 4a at A2A receptors (rat A2A receptors (rA2A); relative to 4a): 29 fold
7 | CCCn1c(=O)c2[nH]c(-c3ccc(OCC(=O)NC(c4ccccc4)c4ccccc4)cc3)nc2n(CCC)c1=O [Compound 14, 8-[4-[(Diphenylmethylcarbamoylmethyl)oxy]phenyl]-1,3-di-(n-propyl)xanthine] | 269 to 270 | 120 ± 21 |  | 33.7 ± 17 | rA2A % displacement (rat A2A receptors (rA2A); Table 2, at (1000)): 20 ± 8%
8 | CCCn1c(=O)c2[nH]c(-c3ccc(OCC(=O)N(C)c4ccccc4)cc3)nc2n(CCC)c1=O [Compound 16, 8-[4-[(N-Methyl-N-phenylcarbamoylmethyl)oxy]phenyl]-1,3-di-(n-propyl)xanthine] | 215 | 218 ± 80 | 497 ± 250 | 5.42 ± 1.71 | selectivity for human A2B versus rat A1 receptors [1]: 40 fold; selectivity for human A2B versus rat A2A receptors [1]: 92 fold; reduction of affinity by N-methylation ([1]; N-methyl anilide versus anilide, human A2B): 3.7 fold
9 | CCCn1c(=O)c2[nH]c(-c3ccc(OCC(=O)N(CC(=O)OCC)CC(=O)OCC)cc3)nc2n(CCC)c1=O [Compound 17, 8-[4-[(N,N-bis(Ethoxycarbonylmethyl)carbamoylmethyl)oxy]-phenyl]-1,3-di-(n-propyl)xanthine] | 225 | 26.8 ± 2.4 | 999 ± 144 | 43.4 ± 8.4 | 
10 | CCCn1c(=O)c2[nH]c(-c3ccc(OCC(=O)Nc4ccc(C(C)=O)cc4)cc3)nc2n(CCC)c1=O [Compound 20, 8-[4-[((4-Acetylphenyl)carbamoylmethyl)oxy]phenyl]-1,3-di-(n-propyl)xanthine] |  | 37.6 ± 4 | 548 ± 183 | 1.39 ± 0.3 | Ki (human A3 receptors (hA3); Table 2): 230 ± 23 nM; selectivity for human A2B versus rat A1 receptors [1]: 27 fold; Ki ([2]; read-out: hA2A Ki or IC50, Table 2): 112 ± 37 nM; Ki ([3]; read-out: hA1 Ki or IC50, Table 2): 157 ± 8 nM
11 | CCCn1c(=O)c2[nH]c(-c3ccc(OCC(=O)Nc4ccc(C(N)=O)cc4)cc3)nc2n(CCC)c1=O [Compound 22, 8-[4-[((4-Carbamoyl)phenylcarbamoylmethyl)oxy]phenyl]-1,3-di-(n-propyl)xanthine] | > 310 | 10.2 ± 2.5 | 683 ± 167 | 7.75 ± 1.11 | 
12 | CCCn1c(=O)c2[nH]c(-c3ccc(OCC(=O)Nc4ccc(C(=O)NC)cc4)cc3)nc2n(CCC)c1=O [Compound 23, 8-[4-[((4-Methylcarbamoyl)phenylcarbamoylmethyl)oxy]phenyl]-1,3-di-(n-propyl)xanthine] | > 310 | 24.8 ± 1.8 | 98.1 ± 49.6 | 3.34 ± 0.51 | 
13 | CCn1c(=O)c2[nH]c(-c3ccc(OCC(=O)Nc4ccc(C)cc4)cc3)nc2n(CC)c1=O [Compound 39] |  |  |  |  | Ki (rat A1 receptors (rA1); Table 3): 34.9 ± 0.3 nM; Ki ([1]; Table 3): 1.78 ± 0.43 nM; Ki (rat A2A receptors (rA2A); Table 3): 71.1 ± 7.7 nM

The next lines start with results.

Row | melting point [°C] | Ki (rat A1 receptors (rA1); Table 2) [nM] | Ki (rat A2A receptors (rA2A); Table 2) [nM] | Ki ([1]; Table 2) [nM] | SMILES | further results
14 | 308 to 309 |  |  |  | CC(=O)c1ccccc1NC(=O)/C=C/c1ccc(-c2nc3c([nH]2)c(=O)n(Cc2ccccc2)c(=O)n3Cc2ccccc2)cc1 (hydrate or solvate) [Compound 37, 8-[4-(2-(2-Acetylphenyl)carbamoyl-trans-vinyl)phenyl]-1,3-dibenzylxanthine] | 
15 | > 310 | 145 ± 28 | 220 ± 79 | 16.1 ± 4.7 | CCCn1c(=O)c2[nH]c(-c3ccc(OCC(=O)Nc4ccc(C(=O)O)cc4)cc3)nc2n(CCC)c1=O [Compound 24, 8-[4-[((4-Carboxy)phenylcarbamoylmethyl)oxy]phenyl]-1,3-di-(n-propyl)xanthine] | 
16 |  | 17.5 ± 5 | 126 ± 38 | 1.88 ± 0.76 | CCCn1c(=O)c2[nH]c(-c3ccc(OCC(=O)Nc4ccc(C)cc4)cc3)nc2n(CCC)c1=O [Compound 25] | 
17 |  | 5.88 ± 1.06 | 63.3 ± 20.4 | 3.71 ± 0.76 | CCCn1c(=O)c2[nH]c(-c3ccc(OCC(=O)Nc4ccc(O)cc4)cc3)nc2n(CCC)c1=O [Compound 26] | 
18 | 305 |  |  |  | CC(=O)c1ccccc1NC(=O)/C=C/c1ccc(-c2nc3c([nH]2)c(=O)n(CC2CCCCC2)c(=O)n3CC2CCCCC2)cc1 [Compound 36, 8-[4-(2-(2-Acetylphenyl)carbamoyl-trans-vinyl)phenyl]-1,3-di-(cyclohexylmethyl)xanthine] | 
19 | 284 |  |  |  | CC(=O)c1ccccc1NC(=O)COc1ccc(-c2nc3c([nH]2)c(=O)n(Cc2ccccc2)c(=O)n3Cc2ccccc2)cc1 [Compound 38, 8-[4-[((2-Acetylphenyl)carbamoylmethyl)oxy]phenyl]-1,3-dibenzyl-xanthine] | 
